Measured values published in ChEMBL document CHEMBL4715844, “Structure-based virtual screening and biological evaluation of novel non-bisphosphonate farnesyl pyrophosphate synthase inhibitors” (Eur J Med Chem, 2020).

Experiments:
[1] = biological target: T1, Farnesyl pyrophosphate synthase (Rattus norvegicus) (UniProt P05369); test: Inhibition of rat FPPS expressed in Escherichia coli BL21 (DE3) using GPP and IPP as substrate at 10 uM incubated for 10 mins by microplate reader
T1 sequence (whole entry): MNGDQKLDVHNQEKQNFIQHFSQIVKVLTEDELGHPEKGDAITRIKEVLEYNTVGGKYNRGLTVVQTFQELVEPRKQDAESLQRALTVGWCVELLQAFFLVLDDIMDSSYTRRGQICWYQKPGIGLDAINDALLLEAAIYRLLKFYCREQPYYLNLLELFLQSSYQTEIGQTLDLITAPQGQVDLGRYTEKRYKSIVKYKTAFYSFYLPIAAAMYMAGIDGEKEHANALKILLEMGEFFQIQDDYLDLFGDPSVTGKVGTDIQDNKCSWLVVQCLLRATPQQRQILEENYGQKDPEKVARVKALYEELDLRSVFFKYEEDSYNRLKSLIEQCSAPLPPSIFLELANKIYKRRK

[2] = biological target: T2, Farnesyl pyrophosphate synthase (Rattus norvegicus, UniProt P05369); test: Binding affinity to rat FPPS expressed in Escherichia coli BL21 (DE3) by isothermal titration calorimetry
T2 sequence (P05369 whole entry): T1 sequence (whole entry)

LoVo = test: Cytotoxicity against FPPS-positive human Lovo cells assessed as reduction in cell viability measured after 48 hrs by MTT assay
HCT-116 = test: Cytotoxicity against FPPS-positive human HCT116 cells assessed as reduction in cell viability measured after 48 hrs by MTT assay; settings: HCT-116, 48 h
MDA-MB-231 = test: Cytotoxicity against FPPS-negative human MDA-MB-231 cells assessed as reduction in cell viability measured after 48 hrs by MTT assay; assay type: functional, cell-based; settings: MDA-MB-231, 48 h

With `O=Cc1ccc(O[C@@H]2O[C@H](CO)[C@@H](O)[C@H](O)[C@H]2O)cc1` the inhibition [1] was 29.3% and the Kd [2] was 328 µM.
`CC(C)Oc1ccc(CNC(=O)C2CCCN(S(=O)(=O)N3CCOCC3)C2)cc1` (stereo unspecified) was tested, and the inhibition [1] was 28.9% and the Kd [2] was 72 µM.
In the case of `Cc1c(O[C@@H]2O[C@H](CO)[C@@H](O)[C@H](O)[C@H]2O)ccc2c3c(c(=O)oc12)CCCCC3`, the inhibition [1] is reported as 17.3% and the Kd [2] is reported as 53.8 µM.
Work on `CNS(=O)(=O)c1cn(CC(=O)Nc2cc(C)cc(C)c2)cc1S(=O)(=O)NC` yielded an inhibition [1] of 23.4% and a Kd [2] of 442 µM.
`O=P(O)(O)C(O)(Cn1ccnc1)P(=O)(O)O` [ZOLEDRONIC ACID] showed an IC50 (LoVo) of 34.9 µM, an IC50 (HCT-116) of 61.6 µM and an IC50 (MDA-MB-231) greater than 100 µM.
